From patent publication US8580790B2, “(Heterocycle/condensed piperidine)-(piperazinyl)-1-alkanone or (heterocycle/condensed pyrrolidine)-(piperazinyl)-1-alkanone derivatives and use thereof as p75 inhibitors” (Sanofi, priority 2009, dated 2013)

| melting point [°C] | SMILES |
| --- | --- |
| 120 to 121 | C[C@@H]1CN(c2ccc(C(=O)O)cn2)C[C@H](C)N1CC(=O)N1CCc2nn(C(C)(C)C)cc2C1 [compound 105, 6-{(3S,5R)-4-[2-(2-tert-butyl-2,4,6,7-tetrahydropyrazolo[4,3-c]pyridin-5-yl)-2-oxoethyl]-3,5-dimethylpiperazin-1-yl}nicotinic acid] |
| 140 to 141 | O=C(CN1CC2CC1CN2c1ccc(C(F)(F)F)nn1)N1CCc2nn(-c3ccc(C(F)(F)F)cn3)cc2C1 (centres unmarked) [compound 107, 2-[5-(6-trifluoromethylpyridazin-3-yl)-2,5-diazabicyclo[2.2.1]hept-2-yl]-1-[2-(5-trifluoromethylpyridin-2-yl)-2,4,6,7-tetrahydropyrazolo[4,3-c]pyridin-5-yl]ethanone] |
| 185 to 186 | O=C(CN1CCN(c2cncc(Cl)n2)CC1)N1CCc2nn(-c3ccc(C(F)(F)F)cn3)cc2C1 [compound 108, 2-(6′-chloro-2,3,5,6-tetrahydro[1,2′]bipyrazinyl-4-yl)-1-[2-(5-trifluoromethylpyridin-2-yl)-2,4,6,7-tetrahydropyrazolo[4,3-c]pyridin-5-yl]ethanone] |
| 189 to 192 | C[C@@H]1CN(c2ccc(C(F)(F)F)cn2)C[C@H](C)N1CC(=O)N1CCc2nc(-c3ccccc3)[nH]c2C1 [compound 110, 2-[(2S,6R)-2,6-dimethyl-4-(5-trifluoromethylpyridin-2-yl)piperazin-1-yl]-1-(2-phenyl-3,4,6,7-tetrahydroimidazo[4,5-c]pyridin-5-yl)ethanone] |
| 150 to 151 | C[C@@H]1CN(c2cnccn2)C[C@H](C)N1CC(=O)N1CCc2nn(-c3ccc(C(F)(F)F)cn3)cc2C1 [compound 111, 2-((3S,5R)-3,5-dimethyl-2,3,5,6-tetrahydro[1,2′]bipyrazinyl-4-yl)-1-[2-(5-trifluoromethylpyridin-2-yl)-2,4,6,7-tetrahydropyrazolo[4,3-c]pyridin-5-yl]ethanone] |
| 165 to 166 | C[C@@H]1CN(c2ccc(Cl)cn2)C[C@H](C)N1CC(=O)N1CCc2nn(-c3ccc(C(F)(F)F)cn3)cc2C1 [compound 112, 2-[(2S,6R)-4-(5-chloropyridin-2-yl)-2,6-dimethylpiperazin-1-yl]-1-[2-(5-trifluoromethylpyridin-2-yl)-2,4,6,7-tetrahydropyrazolo[4,3-c]pyridin-5-yl]ethanone] |
| 100 to 101 | O=C(CN1CCN(c2ccnc3cc(Cl)ccc23)CC1)N1CCc2nn(-c3ccccc3)cc2C1 [compound 113, 2-[4-(7-chloroquinolin-4-yl)piperazin-1-yl]-1-(2-phenyl-2,4,6,7-tetrahydropyrazolo[4,3-c]pyridin-5-yl)ethanone] |
| 155 to 156 | O=C(CN1CCN(c2cccc(Cl)n2)CC1)N1CCc2nn(-c3ccccc3)cc2C1 [compound 114, 2-[4-(6-chloropyridin-2-yl)piperazin-1-yl]-1-(2-phenyl-2,4,6,7-tetrahydropyrazolo[4,3-c]pyridin-5-yl)ethanone] |
| 190 to 192 | C[C@@H]1CN(c2ccc(C(=O)O)cn2)C[C@H](C)N1CC(=O)N1CCc2nc(-c3ccccc3)[nH]c2C1 [compound 116, 6-{(3S,5R)-3,5-dimethyl-4-[2-oxo-2-(2-phenyl-3,4,6,7-tetrahydroimidazo[4,5-c]pyridin-5-yl)ethyl]piperazin-1-yl}nicotinic acid] |
| 165 to 166 | C[C@@H]1CN(c2ccc(C(F)(F)F)cn2)C[C@H](C)N1CC(=O)N1CCc2nn(-c3ccccn3)cc2C1 [compound 118, 2-[(2S,6R)-2,6-dimethyl-4-(5-trifluoromethylpyridin-2-yl)piperazin-1-yl]-1-(2-pyridin-2-yl-2,4,6,7-tetrahydropyrazolo[4,3-c]pyridin-5-yl)ethanone] |
| 139 to 140 | O=C(CN1CCN(c2ccc(C(F)(F)F)cn2)C(=O)C1)N1CCc2nn(-c3ccccn3)cc2C1 [compound 119, 4-[2-oxo-2-(2-pyridin-2-yl-2,4,6,7-tetrahydropyrazolo[4,3-c]pyridin-5-yl)ethyl]-1-(5-trifluoromethylpyridin-2-yl)piperazin-2-one] |
